The NIST ThermoML archive (doi:10.1016/j.fluid.2013.08.026)
± gives the expanded uncertainty stated by the source.

Conditions: for surface tension liquid-gas: Maximal bubble pressure; for mass density: 101.33 kPa, Liquid, Buoyancy - hydrostatic balance

SMILES: CCCCCCCn1cc[n+](C)c1.[Br-] [1-heptyl-3-methylimidazolium bromide]
- surface tension liquid-gas (293.15 K): 37.8 ± 0.5 mN/m
- mass density (293.15 K): 1249 ± 1.3 kg/m3
- surface tension liquid-gas (298.15 K): 37.5 ± 0.5 mN/m
- mass density (298.15 K): 1245.9 ± 1.3 kg/m3
- surface tension liquid-gas (303.15 K): 37.2 ± 0.5 mN/m
- mass density (303.15 K): 1242.3 ± 1.2 kg/m3
- surface tension liquid-gas (308.15 K): 36.8 ± 0.5 mN/m
- mass density (308.15 K): 1239.1 ± 1.2 kg/m3
- surface tension liquid-gas (313.15 K): 36.5 ± 0.5 mN/m
- mass density (313.15 K): 1236 ± 1.2 kg/m3
- surface tension liquid-gas (318.15 K): 36.1 ± 0.5 mN/m
- mass density (318.15 K): 1232.8 ± 1.2 kg/m3
- surface tension liquid-gas (323.15 K): 35.9 ± 0.5 mN/m
- mass density (323.15 K): 1229.7 ± 1.2 kg/m3
- surface tension liquid-gas (328.15 K): 35.6 ± 0.5 mN/m
- mass density (328.15 K): 1226.4 ± 1.2 kg/m3
- surface tension liquid-gas (333.15 K): 35.3 ± 0.5 mN/m
- mass density (333.15 K): 1222.8 ± 1.2 kg/m3
- surface tension liquid-gas (338.15 K): 35 ± 0.5 mN/m
- mass density (338.15 K): 1219.9 ± 1.2 kg/m3
- surface tension liquid-gas (343.15 K): 34.6 ± 0.5 mN/m
- mass density (343.15 K): 1216.6 ± 1.2 kg/m3
